In brackets after ≈: the same amount, converted by molar mass. Activity calls are given as the source filed them. No cut-off for these calls is given here.
Assays:
Staphylococcus aureus = assay: Antibacterial activity against Staphylococcus aureus ATCC 29213 assessed as inhibition of bacterial growth incubated for 16 to 18 hrs by CLSI based microdilution method; type: functional; conditions: time 16-18 hrs
[1] = tested on: Mycobacterium tuberculosis; assay: Antitubercular activity against Mycobacterium tuberculosis H37Rv ATCC 27294 assessed as inhibition of bacterial growth incubated for 7 days by Presto blue resazurin microtiter plate assay; type: functional; conditions: H37Rv ATCC 27294, 168 h, time 7 day
[2] = tested on: Mycobacterium tuberculosis; assay: Bactericidal activity against Mycobacterium tuberculosis H37Rv ATCC 27294 assessed as reduction in colony formation at 1 to 10 times of MIC incubated for 6 to 7 days by time-kill assay; type: functional, organism-based; conditions: time 6-7 day

Row | SMILES | MIC (Staphylococcus aureus) | MIC [1] | Activity [2]
1 | NS(=O)(=O)c1ccc(-n2cc(CSc3nc(=O)c4cc(Cl)cc([N+](=O)[O-])c4s3)nn2)cc1 | ≥ 64 µg/mL | > 64 µg/mL | 
2 | NS(=O)(=O)c1cccc(-n2cc(CSc3nc(=O)c4cc(Cl)cc([N+](=O)[O-])c4s3)nn2)c1 | ≥ 64 µg/mL | > 64 µg/mL | 
3 | O=c1nc(SCc2cn(-c3ccccc3)nn2)sc2c([N+](=O)[O-])cc(Cl)cc12 | ≥ 64 µg/mL | 32 µg/mL (≈ 74.1 µM) | 
4 | CN[C@@H]1[C@H](O[C@H]2[C@H](O[C@H]3[C@H](O)[C@@H](O)[C@H](N=C(N)N)[C@@H](O)[C@@H]3N=C(N)N)O[C@@H](C)[C@]2(O)C=O)O[C@@H](CO)[C@H](O)[C@H]1O [STREPTOMYCIN] |  | 1 µg/mL (≈ 1.72 µM) | 
5 | CCCCCCOc1ccc(-n2cc(CSc3nc(=O)c4cc(Cl)cc([N+](=O)[O-])c4s3)nn2)cc1 | ≥ 64 µg/mL | 8 µg/mL (≈ 15 µM) | 
6 | NNC(=O)c1ccncc1 [ISONIAZID] |  | 0.03 µg/mL (≈ 0.219 µM) | 
7 | O=c1nc(SCc2cn(-c3ccc(N4CCOCC4)c(F)c3)nn2)sc2c([N+](=O)[O-])cc(Cl)cc12 | ≥ 64 µg/mL | 64 µg/mL (≈ 120 µM) | 
8 | CC(C)Oc1cccc(-n2cc(CSc3nc(=O)c4cc(Cl)cc([N+](=O)[O-])c4s3)nn2)c1 | ≥ 64 µg/mL | 64 µg/mL (≈ 131 µM) | 
9 | O=c1nc(SCc2cn(-c3cccc(F)c3)nn2)sc2c([N+](=O)[O-])cc(Cl)cc12 | ≥ 64 µg/mL | 8 µg/mL (≈ 17.8 µM) | 
10 | O=c1nc(SCc2cn(-c3ccc4ccccc4c3)nn2)sc2c([N+](=O)[O-])cc(Cl)cc12 | ≥ 64 µg/mL | 64 µg/mL (≈ 133 µM) | 
11 | O=c1nc(SCc2cn(-c3cccnc3)nn2)sc2c([N+](=O)[O-])cc(Cl)cc12 | ≥ 64 µg/mL | 32 µg/mL (≈ 73.9 µM) | 
12 | O=c1nc(SCc2cn(-c3ccc(N4CCCCC4)cc3)nn2)sc2c([N+](=O)[O-])cc(Cl)cc12 | ≥ 64 µg/mL | 64 µg/mL (≈ 124 µM) | 
13 | O=c1nc(SCc2cn(-c3ccccc3F)nn2)sc2c([N+](=O)[O-])cc(Cl)cc12 | ≥ 64 µg/mL | 16 µg/mL (≈ 35.6 µM) | 
14 | O=c1ccc2cc(-n3cc(CSc4nc(=O)c5cc(Cl)cc([N+](=O)[O-])c5s4)nn3)ccc2o1 | ≥ 64 µg/mL | 32 µg/mL (≈ 64 µM) | 
15 | O=c1nc(SCc2cn(-c3ccccc3Cl)nn2)sc2c([N+](=O)[O-])cc(Cl)cc12 | ≥ 64 µg/mL | 32 µg/mL (≈ 68.6 µM) | 
16 | O=c1nc(SCc2cn(-c3ccc(F)cc3)nn2)sc2c([N+](=O)[O-])cc(Cl)cc12 | ≥ 64 µg/mL | 8 µg/mL (≈ 17.8 µM) | 
17 | CC(=O)c1cccc(-n2cc(CSc3nc(=O)c4cc(Cl)cc([N+](=O)[O-])c4s3)nn2)c1 | ≥ 64 µg/mL | 32 µg/mL (≈ 67.5 µM) | 
18 | O=c1nc(SCc2cn(-c3ccc(F)c(F)c3)nn2)sc2c([N+](=O)[O-])cc(Cl)cc12 | ≥ 64 µg/mL | 8 µg/mL (≈ 17.1 µM) | 
19 | O=c1nc(SCc2cn(-c3ccc(F)c(Cl)c3)nn2)sc2c([N+](=O)[O-])cc(Cl)cc12 | ≥ 64 µg/mL | 8 µg/mL (≈ 16.5 µM) | 
20 | COc1cc(OC)cc(-n2cc(CSc3nc(=O)c4cc(Cl)cc([N+](=O)[O-])c4s3)nn2)c1 | ≥ 64 µg/mL | > 64 µg/mL | 

Row | SMILES | MIC (Staphylococcus aureus) | MIC [1] | Activity [2]
21 | Cc1ccc(-n2cc(CSc3nc(=O)c4cc(Cl)cc([N+](=O)[O-])c4s3)nn2)cc1 | ≥ 64 µg/mL | 8 µg/mL (≈ 17.9 µM) | 
22 | CO[C@H]1/C=C/O[C@@]2(C)Oc3c(C)c(O)c4c(O)c(c(/C=N/N5CCN(C)CC5)c(O)c4c3C2=O)NC(=O)/C(C)=C\C=C\[C@H](C)[C@H](O)[C@@H](C)[C@@H](O)[C@@H](C)[C@H](OC(C)=O)[C@@H]1C [RIFAMPIN] |  | 0.06 µg/mL (≈ 0.0729 µM) | Active
23 | N#Cc1cccc(-n2cc(CSc3nc(=O)c4cc(Cl)cc([N+](=O)[O-])c4s3)nn2)c1 | ≥ 64 µg/mL | 64 µg/mL (≈ 140 µM) | 
24 | O=C(O)c1ccc(-n2cc(CSc3nc(=O)c4cc(Cl)cc([N+](=O)[O-])c4s3)nn2)cc1 | ≥ 64 µg/mL | > 64 µg/mL | 
25 | COc1cc(-n2cc(CSc3nc(=O)c4cc(Cl)cc([N+](=O)[O-])c4s3)nn2)cc(OC)c1OC | ≥ 64 µg/mL | 64 µg/mL (≈ 123 µM) | 
26 | O=C(O)c1ccc(-n2cc(CSc3nc(=O)c4cc(Cl)cc([N+](=O)[O-])c4s3)nn2)cc1O | ≥ 64 µg/mL | > 64 µg/mL | 
27 | O=C(O)c1cccc(-n2cc(CSc3nc(=O)c4cc(Cl)cc([N+](=O)[O-])c4s3)nn2)c1 | ≥ 64 µg/mL | > 64 µg/mL | 
28 | Cc1ccc(-n2cc(CSc3nc(=O)c4cc(Cl)cc([N+](=O)[O-])c4s3)nn2)c(C)c1 | ≥ 64 µg/mL | 32 µg/mL (≈ 69.6 µM) | 
29 | O=c1nc(SCc2cn(-c3ccc(Br)cc3)nn2)sc2c([N+](=O)[O-])cc(Cl)cc12 | ≥ 64 µg/mL | 4 µg/mL (≈ 7.83 µM) | 
30 | O=c1nc(SCc2cn(-c3ccc(N4CCCCC4)c(F)c3)nn2)sc2c([N+](=O)[O-])cc(Cl)cc12 | ≥ 64 µg/mL | 64 µg/mL (≈ 120 µM) | 
31 | COc1ccc(-n2cc(CSc3nc(=O)c4cc(Cl)cc([N+](=O)[O-])c4s3)nn2)cc1 | ≥ 64 µg/mL | 32 µg/mL (≈ 69.3 µM) | 
32 | O=c1nc(SCc2cn(-c3ccc([N+](=O)[O-])cc3)nn2)sc2c([N+](=O)[O-])cc(Cl)cc12 | ≥ 64 µg/mL | 16 µg/mL (≈ 33.6 µM) | 
33 | CC[C@@H](CO)NCCN[C@@H](CC)CO [ETHAMBUTOL] |  | 1 µg/mL (≈ 4.89 µM) | 
34 | O=c1nc(SCc2cn(-c3ccc(Oc4ccccc4)cc3)nn2)sc2c([N+](=O)[O-])cc(Cl)cc12 | ≥ 64 µg/mL | 32 µg/mL (≈ 61.1 µM) | 
35 | O=c1nc(SCc2cn(-c3cccc(C(F)(F)F)c3)nn2)sc2c([N+](=O)[O-])cc(Cl)cc12 | ≥ 64 µg/mL | 8 µg/mL (≈ 16 µM) | 
36 | O=c1nc(SCc2cn(-c3cccc([N+](=O)[O-])c3)nn2)sc2c([N+](=O)[O-])cc(Cl)cc12 | ≥ 64 µg/mL | 32 µg/mL (≈ 67.1 µM) | 
37 | O=c1nc(SCc2cn(-c3ccc(O)cc3)nn2)sc2c([N+](=O)[O-])cc(Cl)cc12 | ≥ 64 µg/mL | 64 µg/mL (≈ 143 µM) | 
38 | COc1ccc(-n2cc(CSc3nc(=O)c4cc(Cl)cc([N+](=O)[O-])c4s3)nn2)cc1OC | ≥ 64 µg/mL | 32 µg/mL (≈ 65 µM) | 
39 | O=c1nc(SCc2cn(-c3cccc(Cl)c3)nn2)sc2c([N+](=O)[O-])cc(Cl)cc12 | ≥ 64 µg/mL | 16 µg/mL (≈ 34.3 µM) | 
40 | Cc1cccc(-n2cc(CSc3nc(=O)c4cc(Cl)cc([N+](=O)[O-])c4s3)nn2)c1 | ≥ 64 µg/mL | 8 µg/mL (≈ 17.9 µM) | 
